One assay addresses FABP5 (Homo sapiens (Human), UniProt Q01469). The experiment in a line: FABP5 fluorescent probe displacement binding assay. The conditions noted are these: for Ki: average ± S.E. of at least three independent experiments; for FABP3 Ki/FABP5 Ki: selectivity ratio FABP3 over FABP5.
A further assay concerns the target FABP7 (Homo sapiens (Human), UniProt O15540). The experiment in a line: FABP7 fluorescent probe displacement binding assay. Particulars: average ± S.E. of at least three independent experiments.
In assay [1] the test system is PC-3 (human metastatic prostate cancer) cells. The experiment in a line: Cytotoxicity (MTT) assay, PC-3 (Example 5). Particulars: 72-hour incubation, 1% FBS, read-out: PC3 IC50. The assay is classed as cell-based.
In assay [2] the test system is WI-38 (human normal lung fibroblast) cells. The experiment in a line: Cytotoxicity (MTT) assay, WI-38 (Example 5). It counts as cell-based. Particulars: 72-hour incubation, 1% FBS.
For a further assay, the target named is FABP3 (Homo sapiens (Human), UniProt P05413). The experiment in a line: FABP3 fluorescent probe displacement binding assay. The conditions noted are these: average ± S.E. of at least three independent experiments.
Sequence of FABP3 (P05413 whole entry): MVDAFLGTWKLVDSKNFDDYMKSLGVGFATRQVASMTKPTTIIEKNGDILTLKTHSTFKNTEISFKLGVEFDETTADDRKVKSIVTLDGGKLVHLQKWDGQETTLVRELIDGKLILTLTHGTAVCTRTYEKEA
Assay [3] has as its system HepG2 (human liver cancer) cells. The experiment in a line: Cytotoxicity (MTT) assay, HepG2 (Example 5). Particulars: 72-hour incubation, 1% FBS. It counts as cell-based.

Structures are written as SMILES. Where only a bound is given, the exact number is not on record here.

Sequence of FABP7 (O15540 whole entry): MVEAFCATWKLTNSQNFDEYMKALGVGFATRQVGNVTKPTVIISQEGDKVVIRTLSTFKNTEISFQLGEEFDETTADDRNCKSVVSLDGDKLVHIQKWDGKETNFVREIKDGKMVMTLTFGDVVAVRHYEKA
Sequence of FABP5 (Q01469 whole entry): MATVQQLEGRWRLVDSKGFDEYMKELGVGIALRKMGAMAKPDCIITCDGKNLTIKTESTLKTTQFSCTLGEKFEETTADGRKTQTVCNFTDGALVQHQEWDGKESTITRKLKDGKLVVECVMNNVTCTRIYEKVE

The Ki is the dissociation constant of the complex between target and ligand, obtained from inhibition or displacement. Low values mean tighter binding, high ones weaker binding. In general, IC50 refers to the concentration needed to halve the response being measured. As for `COc1ccccc1C1[C@@H](C(=O)O)[C@@H](c2ccccc2OC)[C@@H]1C(=O)Oc1cccc(-c2cccc3c2OCCO3)c1` (mixture of isomers) [Compound 1g, (±)-α-3-[3-(2,3-dihydrobenzo[b][1,4]dioxin-5-yl)phenoxycarbonyl]-2,4-di(2-methoxyphanyl)cyclobutane-1-carboxylic acid], the Ki on FABP5 was found to be 410 ± 150 nM; on FABP7, 910 ± 30 nM; at FABP3 it was 4.02 ± 1.04 µM. For the same molecule, the “FABP3 Ki/FABP5 Ki” value on FABP5 came out at 9.8. Besides, the half-inhibitory concentration (IC50) worked out at 4.53 µM in assay [1], 49.8 µM in assay [2] and 8.87 µM in assay [3].
As for `COc1ccccc1C1[C@@H](C(=O)O)[C@@H](c2ccccc2OC)[C@@H]1C(=O)Oc1cccc(-c2ccc3c(c2)OCCO3)c1` (mixture of isomers) [Compound 1m], the figures for the Ki at FABP5, on FABP7 and at FABP3 were 1560 ± 190 nM, 2250 ± 130 nM and 2.79 ± 0.85 µM, respectively. In addition, on FABP5, the “FABP3 Ki/FABP5 Ki” value was 1.8. Moreover, the IC50 amounted to 7.25 µM in assay [1], 49.5 µM in assay [2] and 11.2 µM in assay [3].
Consider `COc1ccccc1C1[C@@H](C(=O)O)[C@@H](c2ccccc2OC)[C@@H]1C(=O)Oc1cccc(-c2ccc(F)cc2)c1` (mixture of isomers) [Compound 1e, (±)-α-2,4-di (2-methoxyphenyl)-3-[3-(4-fluorophenyl)phenoxycarbonyl]cyclobutane-1-carboxylic acid], for which the Ki was determined as 1030 ± 110 nM on FABP5, 990 ± 530 nM on FABP7 and 2.28 ± 0.36 µM on FABP3. Further, the “FABP3 Ki/FABP5 Ki” value at FABP5 came out at 2.2. For the same molecule, the results for the half-maximal inhibitory concentration (IC50) in assay [1], in assay [2] and in assay [3] were 6.79 µM, 27.3 µM and 9.41 µM, respectively.
`O=C(O)[C@@H]1[C@@H](c2ccccc2)[C@H](C(=O)Oc2cccc(-c3ccc4c(c3)OCCO4)c2)[C@H]1c1ccccc1` [Compound 3d, (±)-ε-3-[3-(2,3-dihydrobenzo[b][1,4]dioxin-6-yl)phenoxycarbonyl]-2,4-diphenylcyclobutane-1-carboxylic acid]: the Ki at FABP5 came out at 3150 ± 280 nM; on FABP7, 1490 ± 150 nM; on FABP3, 7.84 ± 0.7 µM. Besides, on FABP5, the “FABP3 Ki/FABP5 Ki” value amounted to 2.5.
As to `O=C(O)[C@@H]1C(c2ccccc2)[C@@H](C(=O)Oc2ccccc2-c2ccc3c(c2)OCO3)[C@@H]1c1ccccc1` (mixture of isomers) [Compound 1i, (±)-α-3-[2-(benzo[d][1,3]dioxol-5-yl)phenoxycarbonyl]-2,4-di (2-dimethoxyphenyl)cyclobutane-1-dicarboxylic acid], the Ki on FABP5 is 790 ± 180 nM; at FABP7, 320 ± 130 nM; on FABP3, 1.13 ± 0.15 µM. In addition, the “FABP3 Ki/FABP5 Ki” value on FABP5 is given as 1.4.
As to `COc1ccccc1[C@H]1[C@H](C(=O)O)[C@H](c2ccccc2OC)[C@@H]1C(=O)Oc1cccc(-c2ccc(F)cc2)c1` [Compound 3e, ε-2,4-diphenyl-3-(4-fluorophenyl)phenoxycarbonylcyclobutane-1-carboxylic acid], the inhibition constant (Ki) at FABP5 stood at 3400 ± 520 nM; on FABP7 it was 2190 ± 40 nM; on FABP3 it was 15.5 ± 1.91 µM. In addition, at FABP5, the “FABP3 Ki/FABP5 Ki” value is 4.7.
Turning to `COc1ccccc1C1[C@@H](C(=O)O)[C@@H](c2ccccc2OC)[C@@H]1C(=O)Oc1cccc(-c2ccc(C#N)cc2)c1` (mixture of isomers) [Compound 1p, (±)-3-(4′-cyano-1,1′-biphenyl-3-yloxycarbonyl)-2,4-di (2-methoxyphenyl)cyclobutane-1-carboxylic acid], the Ki at FABP5 was determined as 1740 ± 80 nM; at FABP7, 3160 ± 430 nM; at FABP3 it was 4.64 ± 0.04 µM. Further, at FABP5, the “FABP3 Ki/FABP5 Ki” value was determined as 2.7.
For `COc1ccccc1[C@@H]1[C@H](C(=O)O)[C@@H](c2ccccc2OC)[C@H]1C(=O)Oc1ccc2cc(-c3cncnc3)ccc2c1` (racemic) [Compound 1k, (±)-α-2,4-di (2-methoxyphenyl)-3-[7-(5-pyrimidine)naphthalen-2-yloxycarbonyl]cyclobutane-1-carboxylic acid] the same measures were 1300 ± 90 nM, 6360 ± 1040 nM, 4.78 ± 0.18 µM and 3.7.
With `O=C(O)[C@@H]1C(c2ccccc2)[C@H](C(=O)OCc2ccccc2-c2ccccc2)[C@H]1c1ccccc1` (mixture of isomers) [Compound 3c, (±) -ε-3-(1,1′-biphenyl-2-ylmethoxycarbonyl)-2,4-diphenylcyclobutane-1-carboxylic acid], the figures for the inhibition constant Ki at FABP5, on FABP7 and at FABP3 were 1650 ± 220 nM, 680 ± 160 nM and 3.4 ± 0.54 µM, respectively. In addition, the “FABP3 Ki/FABP5 Ki” value on FABP5 came out at 2.1. Further, the figures for the IC50 in assay [1], in assay [2] and in assay [3] were 15 µM, 22.2 µM and 13.8 µM, respectively.
For the molecule `O=C(O)[C@H]1[C@H](c2ccccc2)[C@H](C(=O)OCc2cccc3ccccc23)[C@H]1c1ccccc1` [Compound 1r, α-2,4-diphenyl-3-(1-naphthaylmethyl)cyclobutane-1-carboxylic acid], the Ki on FABP5 is 2640 ± 10 nM; on FABP7, 10200 ± 1420 nM; at FABP3, 51.2 ± 5.71 µM. For the same molecule, the “FABP3 Ki/FABP5 Ki” value on FABP5 is listed as 9.0.
On to `COc1ccccc1C1[C@@H](C(=O)O)[C@@H](c2ccccc2OC)[C@@H]1C(=O)OC1Cc2ccccc2C1` (mixture of isomers) [Compound 1l, (±)-α-3-(2,3-dihydro-1-inden-2-yloxycarbonyl)-2,4-di (2-methoxyphenyl)cyclobutane-1-carboxylic acid], for which the Ki is 53800 ± 7280 nM at FABP7 and 53.8 ± 7.28 µM on FABP3. Further, the IC50 in assay [1] amounted to 48.9 µM; in assay [2], 63.7 µM; in assay [3], 45.5 µM.
For the molecule `O=C1CCc2cc(-c3cccc(OC(=O)[C@@H]4C(c5ccccc5)[C@@H](C(=O)O)[C@H]4c4ccccc4)c3)ccc2N1` (mixture of isomers) [Compound 1h, (±)-α-2,4-diphenyl-3-[3-(2-oxo-1,2,3,4-tetrahydroquinolin-6-yl)phenoxycarbonyl]cyclobutane-1-carboxylic acid], the Ki is 740 ± 60 nM at FABP5, 700 ± 30 nM at FABP7 and 8.11 ± 1.67 µM at FABP3. In addition, on FABP5, the “FABP3 Ki/FABP5 Ki” value was 10.9. Moreover, the figures for the IC50 in assay [1], in assay [2] and in assay [3] were 4.93 µM, 24 µM and 7.89 µM, respectively.
In the case of `COc1ccccc1C1[C@@H](C(=O)O)[C@@H](c2ccccc2OC)[C@@H]1C(=O)Oc1ccccc1-c1ccc2c(c1)OCCO2` (mixture of isomers) [Compound 1s, (±)-α-3-[2-(2,3-dihydrobenzo[b][1,4]dioxin-6-yl)phenoxycarbonyl]-2,4-bis(2-methoxyphenyl)cyclobutane-1-carboxylic acid], the Ki at FABP5 is 2810 ± 420 nM; at FABP7, 670 ± 150 nM; at FABP3, 2.29 ± 0.56 µM. Further, the “FABP3 Ki/FABP5 Ki” value on FABP5 is 0.8.
As to `N#Cc1ccc(-c2ccccc2OC(=O)[C@H]2C(c3ccccc3)[C@@H](C(=O)O)[C@H]2c2ccccc2)cc1` (mixture of isomers) [Compound 2d, (±)-γ-3-(4′-cyano-1,1′-biphenyl]-2-yloxycarbonyl)-2,4-diphenylcyclobutane-1-carboxylic acid], the inhibition constant (Ki) on FABP5 came to 1390 ± 70 nM; on FABP7, 950 ± 50 nM; at FABP3, 5.78 ± 1.3 µM. Moreover, the “FABP3 Ki/FABP5 Ki” value at FABP5 is reported as 4.1.
For `COc1ccccc1[C@H]1[C@H](C(=O)O)[C@H](c2ccccc2OC)[C@H]1C(=O)OCC1(F)c2ccccc2-c2ccccc21` [Compound 1t] the same measures were 1830 ± 270 nM, 7720 ± 1200 nM, 25.9 ± 2.4 µM and 14.2.
Consider `COc1ccccc1[C@H]1[C@H](C(=O)O)[C@H](c2ccccc2OC)[C@H]1C(=O)Oc1ccccc1-c1ccccc1` (racemic) [Compound 1o, (±)-α-3-(1,1′-biphenyl-2-yloxycarbonyl)-2,4-di (2-methoxyphenyl)cyclobutane-1-carboxylic acid], for which the Ki at FABP5 was determined as 1590 ± 240 nM; on FABP7, 1360 ± 230 nM; on FABP3, 0.21 ± 0.09 µM. In addition, the “FABP3 Ki/FABP5 Ki” value at FABP5 came out at 0.13. In addition, the 50% inhibitory concentration (IC50) in assay [1] was 8.69 µM; in assay [2], > 100 µM; in assay [3] it was 9.43 µM.
Consider `COc1ccccc1[C@H]1[C@H](C(=O)O)[C@H](c2ccccc2OC)[C@H]1C(=O)OCc1cccc2ccccc12` (racemic) [Compound 1q, (±)-α-2,4-bis(2-methoxyphenyl)-3-(naphthalen-1-ylmethoxycarbonyl)cyclobutane-1-carboxylic acid], for which the Ki on FABP5 stood at 2150 ± 170 nM; on FABP7 it was 8040 ± 710 nM; at FABP3, 52.6 ± 8.62 µM. Further, at FABP5, the “FABP3 Ki/FABP5 Ki” value is listed as 24.5. The IC50 in assay [1] was found to be 11.3 µM; in assay [2], 20.3 µM; in assay [3], 12.4 µM.
`O=C(O)[C@@H]1[C@@H](c2ccccc2)[C@H](C(=O)Oc2cccc3ccccc23)[C@H]1c1ccccc1` [Compound 3g]: the inhibition constant (Ki) on FABP7 amounted to 380 ± 80 nM; on FABP3, 0.32 ± 0.03 µM. In addition, the figures for the IC50 in assay [1], in assay [2] and in assay [3] were 10.6 µM, 54.2 µM and 36.9 µM, respectively.
Consider `COc1ccccc1C1[C@@H](C(=O)O)[C@@H](c2ccccc2OC)[C@H]1C(=O)Oc1cccc(-c2ccc(C#N)cc2)c1` (mixture of isomers) [Compound 2g, (±)-γ-3-(4′-cyano-1,1′-biphenyl]-3-yloxycarbonyl)-2,4-di (2-methoxyphenyl)cyclobutane-1-carboxylic acid], for which the Ki worked out at 2460 ± 190 nM on FABP5, 9110 ± 1470 nM at FABP7 and 27.9 ± 6.37 µM on FABP3. Besides, at FABP5, the “FABP3 Ki/FABP5 Ki” value came to 11.3.
For `O=C(O)[C@H]1[C@H](c2ccccc2)[C@@H](C(=O)Oc2ccc3cc(-c4cncnc4)ccc3c2)[C@H]1c1ccccc1` (racemic) [Compound 2m, (±)-γ-2,4-diphenyl-3-[6-(pyrimidin-5-yl)naphthalen-2-yloxy)carbonyl]cyclobutane-1-carboxylic acid] the same measures were 2560 ± 170 nM, 4190 ± 710 nM, 1.3 ± 0.18 µM and 0.51.

For the origin of these results see patent US20230365488A1, “TRUXILLIC ACID MONOESTER-DERIVATIVES AS SELECTIVE FABP5 INHIBITORS AND PHARMACEUTICAL COMPOSITIONS AND USES THEREOF” (The Research Foundation for The State University of New York, priority 2020, published 2023).
